# Measured values reported in patent US10071064B2, “Tincture for infusing flavonoids and methods of use” (Heart Healthy Spirits, LLC, priority 2014, dated 2018).
# Tests used:
# [1] = Free trans-resveratrol in beverages after adding trans-resveratrol powder, 10 micron filtered (HPLC/(+)ESI-MS/MS and HPLC/UV); assay type: physicochemical
# Text: All beverages receiving the powder are thoroughly mixed. […] A few milliliters of each beverage are transferred to amber-colored sample vials. Samples are stored from each beverage in a refrigerator for analysis.
# [2] = Near-saturated concentration of resveratrol in ethanol; assay type: physicochemical; conditions: 25° C.
# Description: To deliver a 25 mg dose, 0.60 mL of tincture is required regardless of volume of beverage.
SMILES,"appearance on adding powder to beverage ([1]; 25 mg powder in a serving volume, all beverages)","amount of bioavailable (free) resveratrol ([1]; 25 mg powder in alcoholic beverages (red wine, white wine, beer, spirits), 10 micron filtered)","measurable concentrations of free trans-resveratrol ([1]; 25 mg powder in non-alcoholic beverages (energy drink, sodas, orange juice), 10 micron filtered)",concentration of concentrated (near-saturated) tincture [2]
"Oc1ccc(/C=C/c2cc(O)cc(O)c2)cc1 [trans-resveratrol powder, trans-resveratrol]",appears to suspend in solution forming a cloudy layer,below the minimum detection limits of the devices,"none of the non-alcoholic beverages (energy drink, sodas, and orange juice) receiving the powder show any measurable concentrations of trans-resveratrol",
"Oc1ccc(/C=C/c2cc(O)cc(O)c2)cc1 [resveratrol, trans-resveratrol]",,,,42.0 mg/mL
